inhibition, IC50 and Activity data for 14 molecules are collected here from ChEMBL document CHEMBL6078726, “Synthesis and in vitro evaluation of novel compounds and discovery of a promising iodine-125 radioligand for purinergic P2X7 receptor (P2X7R)” (Bioorg Med Chem, 2025).

Experiment [1] concerns the target T1, P2X purinoceptor 7 (Homo sapiens) (UniProt Q99572).
T1 sequence (whole entry): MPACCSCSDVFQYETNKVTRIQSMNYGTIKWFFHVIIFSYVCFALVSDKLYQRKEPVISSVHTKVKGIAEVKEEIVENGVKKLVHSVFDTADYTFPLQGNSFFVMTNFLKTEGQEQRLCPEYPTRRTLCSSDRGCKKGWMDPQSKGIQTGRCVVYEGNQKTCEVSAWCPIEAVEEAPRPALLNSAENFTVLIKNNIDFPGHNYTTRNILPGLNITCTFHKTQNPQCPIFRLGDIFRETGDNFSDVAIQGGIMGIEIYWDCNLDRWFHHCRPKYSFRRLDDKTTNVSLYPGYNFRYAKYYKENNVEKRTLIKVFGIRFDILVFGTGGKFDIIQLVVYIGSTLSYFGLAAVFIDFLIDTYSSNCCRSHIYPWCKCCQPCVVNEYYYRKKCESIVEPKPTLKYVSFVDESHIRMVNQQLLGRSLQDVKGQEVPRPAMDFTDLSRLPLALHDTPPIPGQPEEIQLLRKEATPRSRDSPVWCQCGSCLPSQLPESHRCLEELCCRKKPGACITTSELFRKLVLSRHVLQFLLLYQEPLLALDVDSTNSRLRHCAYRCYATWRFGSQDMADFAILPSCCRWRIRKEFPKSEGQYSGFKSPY
Put plainly: Binding affinity to human P2X7 receptor expressed in HEK293 cell membrane assessed as inhibition of [125I]-4-(1-(1-(4-iodobenzoyl)piperidin-4-yl)-1H-imidazol-5-yl)phenyl isoquinoline-5-sulfonate binding to receptor at 1 uM incubated for 60 mins by high throughput screening relative to control. It counts as cell membranes.

In experiment [2] the target is T2, P2X purinoceptor 7 (Homo sapiens, UniProt Q99572).
T2 sequence (Q99572 whole entry): T1 sequence (whole entry)
Put plainly: Antagonist activity at human P2X7 receptor expressed in HEK293 cells assessed as inhibition of BzATP-induced increase in fluorescence preincubated for 30 mins followed by BzATP addition and measured after 15 mins by YO-PRO-1 based inverted fluorescence microscopic analysis. In kind it is cell-based.

Experiment [3] concerns the target T2, P2X purinoceptor 7. Put plainly: Binding affinity to human P2X7 receptor expressed in HEK293 cell membrane incubated for 60 mins in presence of [125I]-4-(1-(1-(4-iodobenzoyl)piperidin-4-yl)-1H-imidazol-5-yl)phenyl isoquinoline-5-sulfonate by competitive binding assay. In kind it is cell membranes.
Experiment [4] has as its target T1, P2X purinoceptor 7 (Homo sapiens). Put plainly: Antagonist activity at human P2X7 receptor expressed in HEK293 cells assessed as inhibition of BzATP-induced inward current at 300 nM preincubated with compound for 3 mins followed by BzATP addition by whole-cell voltage clamp method. It counts as cell-based. Also noted: scale not given: the % may be the effect or the level left. To be noted: filed as antagonist.

Experiment [5] shares this target. Put plainly: Antagonist activity at human P2X7 receptor expressed in HEK293 cells assessed as inhibition of BzATP-induced increase in fluorescence at 1 uM preincubated for 30 mins followed by BzATP addition and measured after 15 mins by YO-PRO-1 based inverted fluorescence microscopic analysis. It counts as cell-based. To be noted: filed as antagonist, time 45.0 min.

In experiment [6] the target is T3, P2X purinoceptor 2 (Rattus norvegicus) (UniProt P49653).
T3 sequence (whole entry): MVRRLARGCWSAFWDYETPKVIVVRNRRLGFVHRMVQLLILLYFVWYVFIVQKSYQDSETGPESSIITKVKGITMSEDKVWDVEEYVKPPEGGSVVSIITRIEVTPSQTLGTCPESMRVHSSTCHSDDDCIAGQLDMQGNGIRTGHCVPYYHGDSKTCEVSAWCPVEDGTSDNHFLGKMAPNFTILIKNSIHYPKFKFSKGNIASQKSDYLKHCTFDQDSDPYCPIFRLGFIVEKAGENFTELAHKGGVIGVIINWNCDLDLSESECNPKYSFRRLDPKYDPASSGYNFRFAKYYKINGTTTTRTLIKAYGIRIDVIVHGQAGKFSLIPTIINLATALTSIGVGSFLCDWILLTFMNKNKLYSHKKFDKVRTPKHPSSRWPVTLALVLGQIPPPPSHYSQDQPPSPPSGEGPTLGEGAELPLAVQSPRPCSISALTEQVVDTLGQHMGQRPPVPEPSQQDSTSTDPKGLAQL
Put plainly: Antagonist activity at rat P2X2 receptor expressed in HEK293 cells assessed as inhibition of BzATP-induced inward current at 1 uM by whole-cell voltage clamp method. In kind it is cell-based.

For experiment [7], the target named is T1, P2X purinoceptor 7 (Homo sapiens). Put plainly: Antagonist activity at human P2X7 receptor expressed in HEK293 cells assessed as inhibition of BzATP-induced inward current at 300 nM preincubated with compound for 3 mins followed by BzATP addition and measured after 25 mins of washout by whole-cell voltage clamp method. In kind it is cell-based. The settings on record: filed as antagonist, time 28.0 min.

Structures are written as SMILES. The source made the active and inactive calls. No cut-off for these calls is given here.

Regarding `O=C1CNC(C(=O)Nc2ccc(Cl)c(C(=O)NCc3cccc4cnccc34)c2)CN1` (stereo unspecified), the inhibition in experiment [1] was under 35%. In addition, in experiment [2], the IC50 was over 1000 nM.
With `O=C(c1ccc([N+](=O)[O-])cc1)N1CCC(n2cncc2-c2ccc(OS(=O)(=O)c3cccc4cnccc34)cc2)CC1`, in experiment [1] (filed as antagonist), the inhibition is 74%. In addition, in experiment [3], the IC50 amounted to 7.91 nM.
Take `COc1ccc(Cl)c(C(=O)NCc2cccc3cnccc23)c1`: in experiment [1], the inhibition is under 35%. The IC50 in experiment [2] is over 1000 nM.
Regarding `COc1ccc(Cl)c(C(=O)NNC(=O)c2cccc3ncccc23)c1`, in experiment [1], the inhibition is under 35%. The IC50 in experiment [2] was over 1000 nM.
In the case of `CNCC(=O)Nc1ccc(Cl)c(C(=O)NCc2cccc3cnccc23)c1`, the inhibition in experiment [1] is under 35%. In experiment [2], the IC50 is over 1000 nM.
Turning to `O=C(NCc1cccc2cnccc12)c1cc(OCCF)ccc1Cl`, the inhibition in experiment [1] is under 35%. Moreover, the IC50 in experiment [2] is over 1000 nM.
As to `O=C(c1ccc(I)cc1)N1CCC(n2cncc2-c2ccc(OS(=O)(=O)c3cccc4cnccc34)cc2)CC1`, the inhibition in experiment [1] (filed as antagonist) came to 76%. Besides, the Activity in experiment [4] stood at 100%. Besides, the outcome in experiment [5] and in experiment [7] was Active. Further, the result in experiment [6] was inactive. The IC50 in experiment [2] was determined as 0.25 nM.
In the case of `O=C(c1ccc(Br)cc1)N1CCC(n2cncc2-c2ccc(OS(=O)(=O)c3cccc4cnccc34)cc2)CC1`, the inhibition in experiment [1] (filed as antagonist) worked out at 71%. Besides, the IC50 in experiment [3] stood at 7.16 nM.
`NCC(=O)Nc1ccc(Cl)c(C(=O)OCc2cccc3cnccc23)c1`: in experiment [1], the inhibition is under 35%. For the same molecule, the IC50 in experiment [2] was over 1000 nM.
As for `COc1ccc(Cl)c(C(=O)NNC(=O)[C@H]2CC[C@H](C(F)(F)F)CC2)c1`, in experiment [1], the inhibition was under 35%. Besides, the IC50 in experiment [2] was over 1000 nM.
For the molecule `O=C(NCc1cccc2cnccc12)c1cc(O)ccc1Cl`, the inhibition in experiment [1] is under 35%. Besides, the IC50 in experiment [2] is over 1000 nM.
`COc1ccc(C(=O)Nc2ccc(Cl)c(C(=O)OCc3cccc4cnccc34)c2)nc1`: the inhibition in experiment [1] is under 35%. For the same molecule, the IC50 in experiment [2] is over 1000 nM.
For `O=C(NCc1cccc(C(F)(F)F)c1Cl)[C@@H]1CCC(=O)N1C/C=C/I`, the inhibition in experiment [1] is 45%.
With `O=C(OCc1cccc2cnccc12)c1cc(NC(=O)[C@H]2CCCN2)ccc1Cl`, in experiment [1], the inhibition is under 35%. In experiment [2], the IC50 is over 1000 nM.

A word on the inhibition: it is the relative decrease from the control value, in per cent. As a reminder, the IC50 is the concentration that inhibits the measured activity by half.
